{
  "source": "patent US20120207766A1",
  "about": "“INTRACELLULAR TOLL-LIKE RECEPTORS PATHWAYS AND AXONAL DEGENERATION” (priority 2009, published 2012)",
  "key": {"MOG-myelitis": {"system": "MOG-myelitis", "experiment": "MOG peptide myelitis, neurological deficit scoring after systemic mianserin", "format": "in vivo, mice", "conditions": "systemic administration; FIG. 12 panels B and C, n=8", "procedure": "Induction of MOG peptide myelitis, and clinical evaluation. MOG peptide myelitis is elicited in 3 month old male mice by subcutaneous flank administration of 300 μg of rodent MOG peptide 35-55 emulsified in CFA. The mice receive 75 ng of pertussis toxin intraperitoneally on days 0 and 2, and are weighed and scored daily for neurological deficits by 2 blinded observers. Neurological scoring is on a 5 point scale: limp tail or waddling gait=1; limp tail and waddling gait=2; single limb paresis and ataxia 2.5; double limb paresis=3; single limb paralysis and paresis of a second limb=3.5; full paralysis of 2 limbs=4; and death (or sacrifice owing to inanition=5) (Bannerman et al, Brain 128:1877-1886 2005; Bannerman et al., Glia 55:57-64 2008; and Soulika et al, J Neurosci 29:14965-14979 2009).\nMianserin treatment. Mice are induced with MOG-myelitis as described. Groups of mice initially receive intraperitoneally 1-10 mg/kg/day. The start day can vary between days 5-12 (before disease onset) and 14-20 (after disease onset). Peripheral T cell responses and CNS infiltration are analyzed by flow cytometry. […] The mice are perfused with 4% paraformaldehyde and sections from lumbar spinal cord arestained with various antibodies and analyzed by confocal microscopy. […]"}, "MOG-specific Th17 cell": {"system": "MOG-specific Th17 cell", "experiment": "Peripheral T cell responses (Th17) by flow cytometry in MOG-myelitis mice", "format": "in vivo", "conditions": "systemic administration; FIG. 12 panel A, each bar a single mouse", "procedure": "Mianserin treatment. Mice are induced with MOG-myelitis as described. Groups of mice initially receive intraperitoneally 1-10 mg/kg/day. The start day can vary between days 5-12 (before disease onset) and 14-20 (after disease onset). Peripheral T cell responses and CNS infiltration are analyzed by flow cytometry. Lumbar spinal cords are examined immunohistologically to characterize the degrees of axonal degeneration, secondary demyelination and CNS infiltration by peripheral immune cells during the various stages of MaG-myelitis. The mice are perfused with 4% paraformaldehyde and sections from lumbar spinal cord arestained with various antibodies and analyzed by confocal microscopy. In every step the degree of inflammation, axonal degeneration and demyelination is confirmed by using the following antibodies: CD11b (macrophages), CD3 (T cells), CD11c (dendritic cells), Glial fibrillary acidic protein (GFAP astroglia), Myelin Basic protein (MBP, for myelin), and SMI32 (hypophosphorylated NF—H, disrupted axons). To examine intracellular TLR and partner molecules antibodies against TLR3, 8 and 9, MyD88 and IRAK4, NALP1, ASC, active caspase-1, and IL-1 r3 are used.\nPeripheral T cell responses. […]\nFlow cytometry. […] Immunostained cells are analyzed using a Cyan FACS (Dako Cytomation)."}},
  "data": [
    {"smiles": "CN1CCN2c3ccccc3Cc3ccccc3C2C1", "note": "(centres unmarked) [mianserin]", "values": [
      {"measurement": "neurological symptoms associated with MOG-myelitis", "setting": "MOG-myelitis", "result": "diminishes"},
      {"measurement": "MOG-specific Th17 cell generation in the periphery", "setting": "MOG-specific Th17 cell", "result": "does not affect"}
    ]}
  ]
}
